Here are results for 2 compounds from US5158969A, “Indole derivatives as potassium channel blockers” (NeuroSearch A/S, priority 1991, dated 1992).

In assay [1] the test system is BKCa channel. As to the kind of experiment: Single channel patch-clamp, inside-out patches of bovine aortic smooth muscle cells. Format: cell-based. As to conditions: 20 μM. The protocol: (§1) All electrophysiological experiments were performed with patch-clamp technique (Hamill et al., Pflugers Arch. 391, 85-100 (1981). The ion composition of the internal solution was (in mM) 4 NaCl, 140 KCl, 1 CaCl2, 1 MgCl2, 2 EGTA, 10 HEPES and the external solution contained 140 NaCl, 4 Kcl, 2 CaCl2, 1 MgCl2 and 10 HEPES.

For assay [2], the system named is BKCa channel. Put plainly: Single channel patch-clamp in pancreatic β-cells. Format: cell-based. As for the experimental part:
as §1

In assay [3] the test system is immobility of female NMRI mice. As to the kind of experiment: Tail suspension test. Format: in vivo. The note with it: 30 min before test, 6 min suspension. As for the experimental part:
1-(4-methoxyphenyl)-indole has been studied in the socalled tail suspension test as described by L. Steru et al., Prog. Neuro-Psychopharmacol. Biol. Psychiatry 11, 659-671 (1987). Female NMRI mice (20-25 g, 10 mice per dose) were suspended by the tail with adhesive tape for 6 min. The mice alternated between phases of activity (trying to escape) and immobility (despair). The duration of immobility was recorded manually. Saline, 1-(4-methoxyphenyl)-indole or desipramine were administered i.p. 30 min before the start of the test.

The test system of assay [4] is social recognition memory of adult male Wistar rats. As to the kind of experiment: Social recognition model. Format: in vivo, rat. As for the experimental part: In short, adult male Wistar rats (350 g) were housed individually in normal transparent plexiglas cages. After a habituation period of at least 24 hours a juvenile male Wistar rat (25-30 days old) was introduced in the cage in a 5 min period (first exposure). A second exposure of the same juvenile rat for another 5 min period was performed either 5 min later or 120 min later. In one case, another juvenile rat was introduced 120 min after an exposure of a juvenile rat. The adult rat was administered either saline or different doses of 1-(4-methoxyphenyl)-indole i.p. 15 min before the first exposure of the juvenile rat.
In both sessions (1st and 2nd exposure period) the total duration of investigatory behaviour consisting of sniffing, nosing and grooming performed by the adult rat was noted.
The adult rat (n=10-20) used generally 100-110 sec investigating the juvenile rat on the first exposure. […] The memory seems basically to be based on recognition of urine odour.

Structures are written as SMILES.

For `COc1ccc(-n2ccc3ccccc32)cc1` [1-(4-methoxyphenyl)-indole], the entries for the “block of the BKCa channel” value in the assay on BKCa channel [1] and in the assay on BKCa channel [2] were “potently at 20 μM blocked the BKCa channel” and “potently blocked the BKCa channel”, respectively. In addition, the duration of immobility result in assay [3] (doses between 10 and 100 mg/kg i.p.) is given as “inhibited the immobility dose-dependently”. Also, the “investigatory behaviour on the second exposure with a new (unknown) juvenile rat” value in assay [4] (30 mg/kg i.p. 15 min before first exposure, new juvenile rat) is listed as “normal investigatory behaviour was seen”. Moreover, the “investigatory behaviour on the first exposure” value in assay [4] (7.5-30 mg/kg i.p. 15 min before first exposure) is reported as “did not interfere with the adult rats investigatory behaviour”. The “investigatory behaviour on the second exposure of the same juvenile rat” value in assay [4] (7.5-30 mg/kg i.p., second exposure 120 min later, same juvenile rat) is “significant decrease in investigatory behaviour”.

As to `CNCCCN1c2ccccc2CCc2ccccc21` [Desipramine, reference compound], the duration of immobility entry in assay [3] (doses between 1 and 30 mg/kg i.p.) was “reduced the immobility dose-dependently”.
